Numbers after ± are expanded uncertainties.
Conditions: Liquid

| SMILES | vapor or sublimation pressure (313.15 K) [kPa] | vapor or sublimation pressure (323.15 K) [kPa] | vapor or sublimation pressure (333.15 K) [kPa] | vapor or sublimation pressure (343.15 K) [kPa] | vapor or sublimation pressure (353.15 K) [kPa] | vapor or sublimation pressure (363.15 K) [kPa] |
| --- | --- | --- | --- | --- | --- | --- |
| COC [dimethyl ether] | 887 ± 10 | 1147 ± 13 | 1451 ± 17 | 1817 ± 21 | 2251 ± 26 | 2738 ± 32 |
| FC(F)C(F)(F)F [pentafluoroethane] | 2009 ± 24 | 2537 ± 30 | 3170 ± 37 | – | – | – |
